In patent US12479877B2, “Methods for purifying steviol glycosides and uses of the same” (PureCircle Sdn. Bhd., priority 2010, dated 2025):

What was measured:
Assay type in all cases: in vivo, human
[1] = test system: panelists; assay: Sensory properties in acidified water (pH 3.0) at 500 mg/L, 20 panelists; conditions: 500 ppm, acidified water pH 3.0, 20 panelists
Procedure: The sensory properties of Reb X were evaluated in acidified water (pH 3.0 by phosphoric acid) at 500 mg/L concentration by 20 panelists.

[2] = test system: one experienced taster; assay: Isosweetness determination of Reb X in citric buffer against sucrose controls; conditions: for Estimated % Sweetness Equivalence in Citric Buffer at 4° C.: citric buffer pH 3.1, 4° C.; for Estimated % Sweetness Equivalence in Citric Buffer at RT: citric buffer pH 3.1, RT
Procedure: The isosweetness levels of Reb X in a citric buffer system at room temperature and 4° C. were evaluated. A 600 ppm stock solution of Reb X was prepared by adding a mass of 0.15 g into a 250 mL sample of citric buffer (CB) solution. The mixture was moderately stirred at warmer temperature (up to ca. 52° C.) on a heated stirrer for about 15-20 minutes and then cooled. The citric buffer was prepared by adding 1.6 g citric acid, 0.6 g potassium citrate and 0.253 g sodium benzoate in 1 L of carbon-treated water. The pH of the mixture was 3.1. Seven diluted Reb X solutions at […], 25, 50, 100, 200, 300, 400 and 500 ppm were prepared by adding a 2.08, 4.17, 8.33, 16.67, 25.00, 33.33 and 41.67 mL Reb X stock solution, respectively, into each 50 mL solution of CB. The controls of 0.75%, 2%, 4%, 6%, 8%, 10% and 15% sucrose equivalence (SE) were also prepared by adding sugar (w/v) into the CB. The mixtures were moderately stirred and then ready for the isosweetness determination test. The Reb X samples were then evaluated against the control sugar samples in citric buffer at room temperature (RT) and 4° C. (in an ice bath) by one experienced taster for an isosweetness determination using the controlled, multi-sip and swallow taste method.

[3] = test system: panel of trained tasters; assay: Reb X sweetness vs. concentration, matched to sucrose references; conditions: for Reb X Concentration (ppm) matching sucrose reference: Reb X 98% purity, water at room temperature
Procedure: 2.5%, 5.0%, 7.5%, and 10.0% sucrose solutions were prepared in neutral (7.0 pH) and acidified water (3.2 pH) as reference samples. Solutions containing Reb X (98% purity) were prepared to match the sweetness of each sucrose reference in neutral and acidified water. Samples were tasted and verified by a panel of trained tasters in water at room temperature.

[4] = Sweetness Equivalent (SE) 10.0%

## C=C1C[C@@]23CCC4[C@](C)(C(=O)OC5OC(CO)C(O)C(OC6OC(CO)C(O)C(O)C6O)C5OC5OC(CO)C(O)C(O)C5O)CCC[C@@]4(C)[C@@H]2CCC1(OC1OC(CO)C(O)C(OC2OC(CO)C(O)C(O)C2O)C1OC1OC(CO)C(O)C(O)C1O)C3 (stereo partly drawn) [Reb X, (13-[2-O-β-D-glucopyranosyl-3-O-β-D-glucopyranosyl-β-D-glucopyranosyl)oxy] ent kaur-16-en-19-oic acid-[2-O-β-D-glucopyranosyl-3-O-β-D-glycopyranosyl) ester]
[1]
  Astringent taste: Number of panelists detected the attribute: 0
  Bitter taste: Number of panelists detected the attribute: 0
  Licorice taste: Number of panelists detected the attribute: 0
  Overall evaluation: Satisfactory (number of panelists of 20): (20 of 20)
  Quality of sweet taste: Clean (number of panelists of 20): Clean (20
  Sweet Aftertaste: Number of panelists detected the attribute: 0
  Taste profile compared to already known steviol glycosides: superior taste profile
[2]; Reb X 12.5 ppm
  Estimated % Sweetness Equivalence in Citric Buffer at 4° C.: 0.75%
  Estimated % Sweetness Equivalence in Citric Buffer at RT: 0.5%
[2]; Reb X 25 ppm
  Estimated % Sweetness Equivalence in Citric Buffer at 4° C.: 1.5%
  Estimated % Sweetness Equivalence in Citric Buffer at RT: 1.0-1.5%
[2]; Reb X 50 ppm
  Estimated % Sweetness Equivalence in Citric Buffer at 4° C.: 3.0-3.5%
  Estimated % Sweetness Equivalence in Citric Buffer at RT: 3.25-3.75%
[2]; Reb X 100 ppm
  Estimated % Sweetness Equivalence in Citric Buffer at 4° C.: 5.5%
  Estimated % Sweetness Equivalence in Citric Buffer at RT: 5.0%
[2]; Reb X 200 ppm
  Estimated % Sweetness Equivalence in Citric Buffer at 4° C.: 8.0%
  Estimated % Sweetness Equivalence in Citric Buffer at RT: 8.0%
[2]; Reb X 300 ppm
  Estimated % Sweetness Equivalence in Citric Buffer at 4° C.: 11.0-12.0%
  Estimated % Sweetness Equivalence in Citric Buffer at RT: 12.0%
[2]; Reb X 400 ppm
  Estimated % Sweetness Equivalence in Citric Buffer at 4° C.: 14.0-14.5%
  Estimated % Sweetness Equivalence in Citric Buffer at RT: 14.0-14.5%
[2]; Reb X 500 ppm
  Estimated % Sweetness Equivalence in Citric Buffer at 4° C.: 15.5-16.0%
  Estimated % Sweetness Equivalence in Citric Buffer at RT: 15.5-16.0%
[2]; Reb X 600 ppm
  Estimated % Sweetness Equivalence in Citric Buffer at 4° C.: 16.5-17.0%
  Estimated % Sweetness Equivalence in Citric Buffer at RT: 16.5-17.0%
[2]; Reb X concentration range, direct comparison with control sucrose at similar temperatures
  Sweetness intensity difference between RT and 4° C.: no significant sweetness intensity difference
[2]; all concentrations (12.5-600 ppm) in citric buffer
  Sweetness tasting quality: pleasant sweetness tasting quality with a slight delay of sweetness onset and no bitterness
[2]; any Reb X concentrations in CB at 4° C., except at least ca. 300 ppm
  Off-flavors: No off-flavors
[2]; at least ca. 300 ppm Reb X in CB at 4° C.
  Sweetness lingering: longer sweetness lingering
[3]; Sweetness Equivalent (SE) 2.5%
  Sweetness Factor (SF): 521
  Reb X Concentration (ppm) matching sucrose reference: 48 ppm
[3]; Sweetness Equivalent (SE) 5.0%
  Sweetness Factor (SF): 380
  Reb X Concentration (ppm) matching sucrose reference: 132 ppm
[3]; Sweetness Equivalent (SE) 7.5%
  Sweetness Factor (SF): 295
  Reb X Concentration (ppm) matching sucrose reference: 254 ppm
[3]; [4]
  Sweetness Factor (SF): 237
  Reb X Concentration (ppm) matching sucrose reference: 422 ppm
